Experimental findings from patent US20180148418A1, “AMIDO-SUBSTITUTED CYCLOHEXANE DERIVATIVES” (Bayer Pharma Aktiengesellschaft, priority 2015, published 2018) are described below.

Usually IC50 stands for the concentration that gives 50% inhibition. Low values mean inhibition by little substance, high ones a need for much substance.

The experiment deals with T1, TNKS1 (Homo sapiens, UniProt O95271).
T1 construct: purchased BPS Bioscience, San Diego, USA 80579 (TNKS1 Histone Ribosylation Assay Kit)
T1 sequence (O95271 1-1327): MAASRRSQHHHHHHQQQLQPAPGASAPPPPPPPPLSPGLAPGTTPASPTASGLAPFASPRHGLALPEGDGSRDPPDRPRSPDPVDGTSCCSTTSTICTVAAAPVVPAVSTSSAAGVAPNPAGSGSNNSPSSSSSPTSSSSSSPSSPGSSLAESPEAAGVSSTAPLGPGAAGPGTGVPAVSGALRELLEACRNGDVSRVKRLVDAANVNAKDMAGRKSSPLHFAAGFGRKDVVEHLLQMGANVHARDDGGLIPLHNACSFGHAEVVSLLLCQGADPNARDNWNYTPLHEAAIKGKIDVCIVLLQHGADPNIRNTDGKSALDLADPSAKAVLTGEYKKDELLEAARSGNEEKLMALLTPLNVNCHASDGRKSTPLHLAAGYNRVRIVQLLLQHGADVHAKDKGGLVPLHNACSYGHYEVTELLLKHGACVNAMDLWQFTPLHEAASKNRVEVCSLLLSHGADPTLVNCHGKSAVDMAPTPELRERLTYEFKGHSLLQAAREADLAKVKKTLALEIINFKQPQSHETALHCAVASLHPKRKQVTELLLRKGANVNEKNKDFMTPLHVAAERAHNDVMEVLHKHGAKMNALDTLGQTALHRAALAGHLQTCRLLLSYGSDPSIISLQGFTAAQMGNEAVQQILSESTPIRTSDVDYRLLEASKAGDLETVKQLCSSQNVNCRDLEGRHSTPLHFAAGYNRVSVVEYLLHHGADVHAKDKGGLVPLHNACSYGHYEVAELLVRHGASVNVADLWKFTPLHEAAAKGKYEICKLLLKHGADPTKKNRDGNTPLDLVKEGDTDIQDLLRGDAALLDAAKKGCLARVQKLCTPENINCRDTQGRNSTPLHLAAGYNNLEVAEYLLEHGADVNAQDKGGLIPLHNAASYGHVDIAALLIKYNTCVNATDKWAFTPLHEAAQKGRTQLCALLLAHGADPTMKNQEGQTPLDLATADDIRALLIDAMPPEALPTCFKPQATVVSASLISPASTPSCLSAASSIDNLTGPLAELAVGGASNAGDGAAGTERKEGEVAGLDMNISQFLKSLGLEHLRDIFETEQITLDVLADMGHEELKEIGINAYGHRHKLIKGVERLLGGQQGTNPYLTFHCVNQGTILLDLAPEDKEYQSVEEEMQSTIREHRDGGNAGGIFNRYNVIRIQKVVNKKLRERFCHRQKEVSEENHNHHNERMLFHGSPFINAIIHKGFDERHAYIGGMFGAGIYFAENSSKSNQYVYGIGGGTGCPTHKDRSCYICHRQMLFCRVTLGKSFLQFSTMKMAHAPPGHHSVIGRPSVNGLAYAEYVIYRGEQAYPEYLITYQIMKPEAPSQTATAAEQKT
As to the kind of experiment: TNKS1 Assay B (auto-parsylation, [3H]-NAD+ SPA). In kind it is biochemical. Particulars: 6 nM TNKS1, auto-parsylation, over night at room temperature.

In the case of `CNC(=O)c1[nH]cnc1C(=O)N[C@@H]1CC[C@@H](C(=O)Nc2ccc(F)cc2Cl)C[C@@H]1F` (racemic) [Example 31, N^4-{(1α,2α,4β)-4-[(2-chloro-4-fluorophenyl)carbamoyl]-2-fluorocyclohexyl}-N^5-methyl-1H-imidazole-4,5-dicarboxamide], it took 150 nM to reach half-maximal inhibition (IC50).
As to `CNC(=O)c1[nH]cnc1C(=O)N[C@@H]1CC[C@@H](C(=O)Nc2ccc(F)cc2Cl)C[C@H]1OC` (racemic) [Example 35, N^4-{(1α,2β,4β)-4-[(2-chloro-4-fluorophenyl)carbamoyl]-2-methoxycyclohexyl}-N^5-methyl-1H-imidazole-4,5-dicarboxamide], the IC50 was above 10000 nM.
The molecule `CNC(=O)c1[nH]cnc1C(=O)N[C@H]1CC[C@H](C(=O)Nc2ccc(F)cc2Cl)CC1(F)F` (single isomer, unassigned) [Example 33, N^4-{(trans)-4-[(2-chloro-4-fluorophenyl)carbamoyl]-2,2-difluorocyclohexyl}-N^5-methyl-1H-imidazole-4,5-dicarboxamide] gave an IC50 of 720 nM.
Under `CNC(=O)c1[nH]cnc1C(=O)NC1CCC(C(=O)Nc2ccc(F)cc2Cl)CC1C` (single isomer, unassigned) [Example 41, N^4-{4-[(2-chloro-4-fluorophenyl)carbamoyl]-2-methylcyclohexyl}-N^5-methyl-1H-imidazole-4,5-dicarboxamide] stands above 10000 nM; under `O=C(NC1CCC(F)(C(=O)Nc2ccc(F)cc2Cl)CC1)c1cnn2cccnc12` (single isomer, unassigned) [Example 365, N-{4-[(2-chloro-4-fluorophenyl)carbamoyl]-4-fluorocyclohexyl}pyrazolo[1,5-a]pyrimidine-3-carboxamide (single isomer)], above 10000 nM.
Regarding `CNC(=O)c1[nH]cnc1C(=O)NC1CCC(F)(C(=O)Nc2ccc(F)cc2Cl)CC1` (single isomer, unassigned) [Example 366, N^4-{4-[(2-chloro-4-fluorophenyl)carbamoyl]-4-fluorocyclohexyl}-N^5-methyl-1H-imidazole-4,5-dicarboxamide (single isomer)], the half-inhibitory concentration (IC50) is above 10000 nM.
Under `CNC(=O)c1[nH]cnc1C(=O)N[C@@H]1CC[C@@H](C(=O)Nc2ccc(F)cc2Cl)CC1(F)F` (stereo in doubt) [Example 32, N^4-{(trans)-4-[(2-chloro-4-fluorophenyl)carbamoyl]-2,2-difluorocyclohexyl}-N^5-methyl-1H-imidazole-4,5-dicarboxamide] stands 360 nM.
For the molecule `O=C(NCC1CCCO1)c1nc[nH]c1C(=O)N[C@H]1CC[C@H](C(=O)Nc2c(F)cc(F)cc2Cl)CC1` (stereo in doubt) [Example 71, N^5-{trans-4-[(2-chloro-4,6-difluorophenyl)carbamoyl]cyclohexyl}-N^4-[(2R)-tetrahydrofuran-2-ylmethyl]-1H-imidazole-4,5-dicarboxamide], 180 nM corresponded to half-maximal inhibition (IC50).
As to `CNC(=O)c1nc[nH]c1C(=O)N[C@H]1CC[C@H](C(=O)Nc2ccc(F)cc2Cl)CC1` [Example 1, N^5-{trans-4-[(2-chloro-4-fluorophenyl)carbamoyl]cyclohexyl}-N^4-methyl-1H-imidazole-4,5-dicarboxamide], the IC50 came out at 73 nM. Against the preceding molecule, the IC50 is about 2.5-fold lower.
As to `O=C(N[C@H]1CC[C@H](C(=O)Nc2ccc(F)cc2Cl)CC1)c1[nH]cnc1C(=O)N1CC2(CCS2(=O)=O)C1` [Example 22, N-{trans-4-[(2-chloro-4-fluorophenyl)carbamoyl]cyclohexyl}-4-[(1,1-dioxido-1-thia-6-azaspiro[3.3]hept-6-yl)carbonyl]-1H-imidazole-5-carboxamide], the IC50 worked out at 10 nM.
In the case of `O=C(N[C@H]1CC[C@H](C(=O)Nc2ccc(F)cc2Cl)CC1)c1[nH]cnc1C(=O)N1CCC1` [Example 23, 4-(azetidin-1-ylcarbonyl)-N-{trans-4-[(2-chloro-4-fluorophenyl)carbamoyl]cyclohexyl}-1H-imidazole-5-carboxamide], the IC50 came to 21 nM.
For `COC1CN(C(=O)c2nc[nH]c2C(=O)N[C@H]2CC[C@H](C(=O)Nc3ccc(F)cc3Cl)CC2)C1` [Example 24, 4 N-{trans-4-[(2-chloro-4-fluorophenyl)carbamoyl]cyclohexyl}-4-[(3-methoxyazetidin-1-yl)carbonyl]-1H-imidazole-5-carboxamide], the IC50 is 21 nM. That is a double-digit nanomolar value.
Then `O=C(NCCN1CC2(CCO2)C1)c1nc[nH]c1C(=O)N[C@H]1CC[C@H](C(=O)Nc2ccc(F)cc2Cl)CC1` [Example 25, N^5-{trans-4-[(2-chloro-4-fluorophenyl)carbamoyl]cyclohexyl}-N^4-[2-(1-oxa-6-azaspiro[3.3]hept-6-yl)ethyl]-1H-imidazole-4,5-dicarboxamide], with 13 nM.
`CN(C)C1CN(C(=O)c2nc[nH]c2C(=O)N[C@H]2CC[C@H](C(=O)Nc3ccc(F)cc3Cl)CC2)C1` [Example 26, N-{trans-4-[(2-chloro-4-fluorophenyl)carbamoyl]cyclohexyl}-4-{[3-(dimethylamino)azetidin-1-yl]carbonyl}-1H-imidazole-5-carboxamide]: the IC50 was determined as 62 nM.
`CNC(=O)c1nc[nH]c1C(=O)N[C@H]1CC[C@H](C(=O)Nc2c(Br)cc(F)c(F)c2F)CC1` [Example 27, N^5-{trans-4-[(6-bromo-2,3,4-trifluorophenyl)carbamoyl]cyclohexyl}-N^4-methyl-1H-imidazole-4,5-dicarboxamide] yielded an IC50 of 30 nM.
With `CNC(=O)c1nc[nH]c1C(=O)N[C@H]1CC[C@H](C(=O)Nc2c(F)cc(F)cc2Br)CC1` [Example 28, N^5-{trans-4-[(6-bromo-2,4-difluorophenyl)carbamoyl]cyclohexyl}-N^4-methyl-1H-imidazole-4,5-dicarboxamide], the IC50 was found to be 68 nM. This IC50 is about 2.3-fold higher than that of the molecule before.
The molecule `CNC(=O)c1ncoc1C(=O)N[C@H]1CC[C@H](C(=O)Nc2ccc(F)cc2Cl)CC1` [Example 29, N^5-{trans-4-[(2-chloro-4-fluorophenyl)carbamoyl]cyclohexyl}-N^4-methyl-1,3-oxazole-4,5-dicarboxamide] gave an IC50 of 650 nM.
As for `CNC(=O)c1ocnc1C(=O)N[C@H]1CC[C@H](C(=O)Nc2ccc(F)cc2Cl)CC1` [Example 30], the IC50 is above 10000 nM.
The molecule `Cc1cc(C)n2ncc(C(=O)NC3CCC(C(=O)Nc4ccc(F)cc4Cl)CC3C)c2n1` (stereo not drawn) [Example 42, N-{4-[(2-chloro-4-fluorophenyl)carbamoyl]-2-methylcyclohexyl}-5,7-dimethylpyrazolo[1,5-a]pyrimidine-3-carboxamide] came in with an IC50 of 120 nM.
The molecule `O=C(N[C@H]1CC[C@H](C(=O)Nc2ccc(F)cc2Cl)CC1)c1cnn2cccnc12` [Example 43, N-{trans-4-[(2-chloro-4-fluorophenyl)carbamoyl]cyclohexyl}pyrazolo[1,5-a]pyrimidine-3-carboxamide] showed a 50% inhibitory concentration (IC50) of 81 nM.
`Cc1cc(C)n2ncc(C(=O)N[C@H]3CC[C@H](C(=O)Nc4ccc(F)cc4Cl)CC3)c2n1` [Example 44, N-{trans-4-[(2-chloro-4-fluorophenyl)carbamoyl]cyclohexyl}-5,7-dimethylpyrazolo[1,5-a]pyrimidine-3-carboxamide] returned an IC50 of 48 nM.
Turning to `O=C(N[C@H]1CC[C@H](C(=O)Nc2ccc(F)cc2Cl)CC1)c1cnc2cccnn12` [Example 45, N-{trans-4-[(2-chloro-4-fluorophenyl)carbamoyl]cyclohexyl}imidazo[1,2-b]pyridazine-3-carboxamide], the IC50 came to 310 nM.
`CC(=O)c1cnc2c(C(=O)N[C@H]3CC[C@H](C(=O)Nc4ccc(F)cc4Cl)CC3)cnn2c1C` [Example 46, 6-acetyl-N-{trans-4-[(2-chloro-4-fluorophenyl)carbamoyl]cyclohexyl}-7-methylpyrazolo[1,5-a]pyrimidine-3-carboxamide]: 65 nM corresponded to half-maximal inhibition (IC50).
Turning to `O=C(N[C@H]1CC[C@H](C(=O)Nc2ccc(F)cc2Cl)CC1)c1cnc2ccc(Cl)nn12` [Example 47, 6-chloro-N-{trans-4-[(2-chloro-4-fluorophenyl)carbamoyl]cyclohexyl}imidazo[1,2-b]pyridazine-3-carboxamide], the IC50 stood at 530 nM.
